Assay results: patent publication US20250024871A1, “AMIDE COMPOUNDS AND THEIR USE AS FLAVOR MODIFIERS” (Firmenich Incorporated, priority 2021, published 2025)

Molecular target: T1, T1R umami taste receptor (Homo sapiens, UniProt Q7RTX0+Q7RTX1)
T1 sequence (Q7RTX1 21-841): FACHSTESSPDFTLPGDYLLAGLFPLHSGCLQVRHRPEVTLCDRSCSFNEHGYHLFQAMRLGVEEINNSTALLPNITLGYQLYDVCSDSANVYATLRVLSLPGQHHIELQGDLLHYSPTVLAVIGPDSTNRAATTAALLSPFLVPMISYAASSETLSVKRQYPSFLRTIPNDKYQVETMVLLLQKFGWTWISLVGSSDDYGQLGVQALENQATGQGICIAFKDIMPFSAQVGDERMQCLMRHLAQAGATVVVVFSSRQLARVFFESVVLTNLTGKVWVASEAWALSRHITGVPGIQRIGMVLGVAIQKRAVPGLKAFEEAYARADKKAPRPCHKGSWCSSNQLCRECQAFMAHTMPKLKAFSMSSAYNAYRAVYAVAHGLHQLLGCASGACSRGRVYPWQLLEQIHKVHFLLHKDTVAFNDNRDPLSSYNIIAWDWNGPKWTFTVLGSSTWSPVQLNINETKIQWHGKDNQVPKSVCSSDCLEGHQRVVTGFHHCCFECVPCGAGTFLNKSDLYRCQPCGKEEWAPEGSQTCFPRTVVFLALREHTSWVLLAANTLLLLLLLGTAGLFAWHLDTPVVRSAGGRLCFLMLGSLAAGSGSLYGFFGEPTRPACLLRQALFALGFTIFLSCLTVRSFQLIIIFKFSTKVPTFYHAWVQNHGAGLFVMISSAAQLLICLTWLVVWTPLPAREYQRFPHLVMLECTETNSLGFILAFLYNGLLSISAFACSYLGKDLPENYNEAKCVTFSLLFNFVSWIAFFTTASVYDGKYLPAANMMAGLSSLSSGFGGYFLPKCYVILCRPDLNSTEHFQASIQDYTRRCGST
T1 sequence (Q7RTX0 21-852): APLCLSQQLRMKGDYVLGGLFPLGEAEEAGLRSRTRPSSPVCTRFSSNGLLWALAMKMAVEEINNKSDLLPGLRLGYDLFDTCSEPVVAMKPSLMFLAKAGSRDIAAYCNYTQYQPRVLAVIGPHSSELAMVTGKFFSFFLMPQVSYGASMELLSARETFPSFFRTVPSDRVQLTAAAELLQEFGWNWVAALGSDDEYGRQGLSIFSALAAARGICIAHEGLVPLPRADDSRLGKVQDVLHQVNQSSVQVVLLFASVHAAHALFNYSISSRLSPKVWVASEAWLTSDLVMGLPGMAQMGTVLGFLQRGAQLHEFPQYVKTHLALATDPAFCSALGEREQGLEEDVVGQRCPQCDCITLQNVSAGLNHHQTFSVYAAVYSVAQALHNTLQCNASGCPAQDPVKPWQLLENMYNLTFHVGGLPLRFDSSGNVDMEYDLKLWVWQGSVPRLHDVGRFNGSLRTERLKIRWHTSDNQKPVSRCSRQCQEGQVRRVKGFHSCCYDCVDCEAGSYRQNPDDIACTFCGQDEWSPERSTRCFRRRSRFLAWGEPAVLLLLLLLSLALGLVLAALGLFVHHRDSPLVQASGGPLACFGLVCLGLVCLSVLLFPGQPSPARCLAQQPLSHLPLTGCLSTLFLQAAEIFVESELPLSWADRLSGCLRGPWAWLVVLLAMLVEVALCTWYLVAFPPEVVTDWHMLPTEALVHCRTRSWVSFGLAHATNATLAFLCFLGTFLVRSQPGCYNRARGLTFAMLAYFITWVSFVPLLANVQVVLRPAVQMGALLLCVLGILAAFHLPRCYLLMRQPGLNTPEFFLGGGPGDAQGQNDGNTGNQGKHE
Experiment: in vitro cell-based assay having cells that express the T1R umami taste receptor (enhancement of MSG)
Conditions: for EC50: cells expressing T1R umami taste receptor, read-out: EC50 for enhancement of MSG binding
Description: Each of Compounds 101-183 was synthesized according to one of the general procedures set forth above in Examples 1. Thereafter, the compounds were tested in an in vitro cell-based assay having cells that express the T1R umami taste receptor. Dose-binding curves were recorded and the EC50 was determined for enhancement of MSG binding. Table 2 sets forth the calculated EC50 values for certain tested compounds as well as the MSG enhancement ratio at a particular concentration.

Structure (SMILES)	EC50 [µM]	MSG Enh. Ratio (compound at 50 μM)	also measured
COC(=O)[C@H](Cc1ccccc1)NC(=O)/C=C/c1ccccc1OC [Compound 152, Methyl (E)-(3-(2-methoxyphenyl)acryloyl)-L-phenylalaninate]	27		MSG Enh. Ratio (compound at 10 μM): 2.8 @
CCOC(=O)[C@H](CC(C)C)NC(=O)/C=C/c1ccc2c(c1)OCO2 [Compound 162, Ethyl (E)-(3-(benzo[d][1,3]dioxol-5-yl)acryloyl)-L-leucinate]	> 50	3.4 @	
COC(=O)[C@@H](NC(=O)c1ccc(OC)c(OC)c1)C(C)C [Compound 124, Methyl (3,4-dimethoxybenzoyl)-L-valinate]	> 50	1.8 @	
CCOC(=O)CC[C@H](NC(=O)c1cn(C)c2ccccc12)C(=O)OCC [Compound 134, Diethyl (1-methyl-1H-indole-3-carbonyl)-L-glutamate]	> 50	3.8 @	
CCCCc1ccc(C(=O)N[C@@H](Cc2ccccc2)C(=O)OC)nc1 [Compound 132, Methyl (5-butylpicolinoyl)-L-phenylalaninate]	> 50	2.6 @	
COC(=O)CC[C@H](NC(=O)/C=C/c1ccccc1)C(=O)OC [Compound 139, Dimethyl cinnamoyl-L-glutamate]		3.82 @	
CCOC(=O)[C@H](CC(C)C)NC(=O)/C=C/C(C)C [Compound 169, Ethyl (E)-(4-methylpent-2-enoyl)-L-leucinate]	12.9		MSG Enh. Ratio (compound at 3 μM): 4.2 @
CCOC(=O)[C@H](Cc1ccccc1)NC(=O)/C=C/c1ccc2c(c1)OCO2 [Compound 160, Ethyl (E)-(3-(benzo[d][1,3]dioxol-5-yl)acryloyl)-L-phenylalaninate]	> 50	3.9 @	
CCOC(=O)CC[C@H](NC(=O)/C=C/c1ccc(O)cc1)C(=O)OCC [Compound 164, Diethyl (E)-(3-(4-hydroxyphenyl)acryloyl)-L-glutamate]	> 50	4.2 @	
COC(=O)[C@H](Cc1ccccc1)NC(=O)/C=C/c1cc(OC)ccc1OC [Compound 157, Methyl (E)-(3-(2,5-dimethoxyphenyl)acryloyl)-L-phenylalaninate]	> 50	3.1 @	
CCOC(=O)CC[C@H](NC(=O)c1cc(OC)cc(OC)c1)C(=O)OCC [Compound 126, Diethyl (3,5-dimethoxybenzoyl)-L-glutamate]		5.2 @	
C/C=C/C=C/C(=O)N[C@@H](CC(C)C)C(=O)OCC [Compound 181, Ethyl ((2E,4E)-hexa-2,4-dienoyl)-L-leucinate]	> 50	4.5 @	
COC(=O)[C@H](Cc1ccccc1)NC(=O)c1ccc2c(c1)OCO2 [Compound 128, Methyl (benzo[d][1,3]dioxole-5-carbonyl)-L-phenylalaninate]	> 50		MSG Enh. Ratio (compound at 10 μM): 3.7 @
COC(=O)[C@H](C)NC(=O)/C=C/c1ccc(OC)cc1 [Compound 142, Methyl (E)-(3-(4-methoxyphenyl)acryloyl)-L-alaninate]	> 50	3.3 @	
CCOC(=O)[C@@H](NC(=O)/C=C/c1ccccc1)[C@@H](C)CC [Compound 137, Ethyl cinnamoyl-L-isoleucinate]		4.3 @	
CCOC(=O)[C@H](Cc1ccccc1)NC(=O)/C=C/C(C)C [Compound 172, Ethyl (E)-(4-methylpent-2-enoyl)-L-phenylalaninate]			MSG Enh. Ratio (compound at 10 μM): 3.6 @
CCOC(=O)[C@@H](NC(=O)c1cccc(OC)c1)C(C)C [Compound 108, Ethyl (3-methoxybenzoyl)-L-valinate]	> 50	2.7 @	
CCC/C=C/C(=O)N[C@@H](Cc1ccccc1)C(=O)OC [Compound 176, Methyl (E)-hex-2-enoyl-L-phenylalaninate]		8.4 @	
C=C(C)C1CC=C(C(=O)N[C@@H](Cc2ccccc2)C(=O)OC)CC1 (stereo partly drawn) [Compound 166, Methyl (4-(prop-1-en-2-yl)cyclohex-1-ene-1-carbonyl)-L-phenylalaninate]	> 50	4.6 @	

Continued, in another order:

EC50 [µM]	MSG Enh. Ratio (compound at 50 μM)	Structure (SMILES)	also measured
0.3		COC(=O)[C@@H](Cc1ccccc1)NC(=O)c1ccc(C)c(C)c1 [Compound 113, Methyl (3,4-dimethylbenzoyl)-D-phenylalaninate]	
26	4.4 @	CCOC(=O)CC[C@H](NC(=O)c1ccc(C(C)C)cc1)C(=O)OCC [Compound 111, Diethyl (4-isopropylbenzoyl)-L-glutamate]	
11.1		COC(=O)[C@@H](NC(=O)c1ccc(C)c(C)c1)C(C)C [Compound 117, Methyl (3,4-dimethylbenzoyl)-L-valinate]	MSG Enh. Ratio (compound at 3 μM): 4.6 @
1		CCOC(=O)[C@H](NC(=O)/C=C/c1ccc(OC)cc1)C(C)C [Compound 145, Ethyl (E)-(3-(4-methoxyphenyl)acryloyl)-D-valinate]	
< 2		COC(=O)[C@@H](CC(C)C)NC(=O)c1ccc(C)cc1 [Compound 101, Methyl (4-methylbenzoyl)-D-leucinate]	
3.34		CCOC(=O)[C@@H](CC(C)C)NC(=O)/C=C/C(C)C [Compound 171, Ethyl (E)-(4-methylpent-2-enoyl)-D-leucinate]	MSG Enh. Ratio (compound at 3 μM): 8.96 @
10.1		CCOC(=O)[C@H](Cc1ccccc1)NC(=O)/C=C/c1ccc(OC)cc1 [Compound 148, Ethyl (E)-(3-(4-methoxyphenyl)acryloyl)-L-phenylalaninate]	MSG Enh. Ratio (compound at 1 μM): 3.5 @
3		CCOC(=O)[C@H](Cc1ccccc1)NC(=O)/C=C/c1ccc(OCC)cc1 [Compound 154, Ethyl (E)-(3-(4-ethoxyphenyl)acryloyl)-L-phenylalaninate]	MSG Enh. Ratio (compound at 3 μM): 2.0 @
4		CCOC(=O)CC[C@H](NC(=O)/C=C/c1ccc(OCC)cc1)C(=O)OCC [Compound 156, Diethyl (E)-(3-(4-ethoxyphenyl)acryloyl)-L-glutamate]	
2		CCOC(=O)CC[C@H](NC(=O)/C=C/c1ccc(OC)cc1)C(=O)OCC [Compound 151, Diethyl (E)-(3-(4-methoxyphenyl)acryloyl)-L-glutamate]	MSG Enh. Ratio (compound at 3 μM): 4.2 @
2		CCOC(=O)CC[C@H](NC(=O)c1ccc(C)c(C)c1)C(=O)OCC [Compound 122, Diethyl (3,4-dimethylbenzoyl)-L-glutamate]	MSG Enh. Ratio (compound at 3 μM): 4.9 @
15		CCOC(=O)[C@@H](NC(=O)/C=C/c1ccccc1OC)C(C)C [Compound 143, Ethyl (E)-(3-(2-methoxyphenyl)acryloyl)-L-valinate]	MSG Enh. Ratio (compound at 10 μM): 4.4 @
1		COC(=O)[C@H](Cc1ccccc1)NC(=O)/C=C/c1ccc(OC)cc1 [Compound 146, Methyl (E)-(3-(4-methoxyphenyl)acryloyl)-L-phenylalaninate]	MSG Enh. Ratio (compound at 0.3 μM): 6.4 @
0.5		CCOC(=O)[C@@H](CC(C)C)NC(=O)c1ccc2c(c1)OCO2 [Compound 130, Ethyl (benzo[d][1,3]dioxole-5-carbonyl)-D-leucinate]	
8		COC(=O)[C@H](Cc1ccccc1)NC(=O)c1ccc(C)c(C)c1 [Compound 119, Methyl (3,4-dimethylbenzoyl)-L-phenylalaninate]	MSG Enh. Ratio (compound at 3 μM): 4.6 @
